Here are results for one compound from patent publication US10927115B2, “Substituted heterocycles for targeting Hsp90” (Duke University, priority 2012, dated 2021).

Data set [1] concerns MDA-MB-468 tumor-bearing mice. The data set can be described thus: Biodistribution of compound 10 in mouse xenografts by flow cytometry. In kind it is in vivo, NOD/SCID mice. As to conditions: 1 mg/mouse intraperitoneally, 2, 24, 48 or 72 hours. On the procedure: MDA-MB-468 cells (5M cells/mouse) were injected to the flank of NOD/SCID mice. When tumors reached 5-10 mm in diameter, tumor-bearing mice were intraperitoneally injected with compound 10 (1 mg/mouse, in 100 μL of DMSO). After 2, 24, 48 or 72 hours, mice were sacrificed and tumors, livers and spleens were harvested. Tumors and livers were digested with collagenase/hyarulonidase/DNase for 1 hour at 37° C., and ficolled to eliminate debris and dead cells, and then washed. Cells in tumor digest were labeled with anti-mouse CD45-biotin+anti-H2-kD-biotin for 15 min on ice, and then 15 min with streptavidin-APC. Tumor cells were analyzed by flow cytometry to detect fluorescence from compound 10. Mouse lineage negative cells were gated for the analysis. Spleen were minced and passed through the strainer. Splenocytes, liver cells and tumor cells were analyzed by flow cytometry to detect fluorescence from compound 10.
Spleen were minced and passed through a strainer to get rid of aggregations/membranous tissue. Cells were stained with violet viability dye. Viable cells were analyzed for their compound 10 uptake.
Liver tissues were minced with blades and digested with triple enzyme buffer (collagenase III, hyarulonidase, DNAse) for 1 h at 37° C., and cells were passed through a strainer to get rid of aggregations. Cells were stained with violet viability dye. Viable cells were analyzed for their compound 10 uptake.
Tumor tissues were minced with blades and digested with triple enzyme buffer (collagenase III, hyarulonidase, DNAse) for 1 h at 37° C., and cells were passed through a strainer to get rid of aggregations. Cells were stained with anti-mouse CD45-biotin/anti-H2-kd-biotin and then streptavidin-APC and violet viability dye. Viable and CD45/H2-kd negative cells were analyzed for their compound 10 uptake.
(In general: In flow cytometry, cells or beads pass a laser one at a time.)

A further data set concerns MCF10 (benign) cells. The data set is described as follows: Probe detection of Hsp90 in cells ± membrane permeabilization with Triton X 100. The conditions noted are these: MCF10, non-permeabilized; FIG. 5B. In kind it is cell-based. On the procedure: (§1) In another experiment, MCF7 (metastatic) and MCF10 (benign) cells were treated with an Hsp90 antibody±membrane permeabilization with Triton X 100. […] After permeabilization the antibody recognizes intracellular Hsp90. […] The experiment was also performed using fluorescein compound 10. […] In FIGS. 5A-5B the green staining from compound 10 fluorescence appears white, while blue from the DAPI-stained nuclei appears gray.

Another data set concerns MCF7 (metastatic) cells. The description is as above. Type of data set: cell-based. The conditions noted are these: FIG. 5B. How it is done: as §1
A further data set concerns MDA-MB-468 tumor. The data set can be described thus: In vivo detection of compound 10 with optical spectroscopy. The arrangement: species or system SCID mice. The conditions noted are these: 1 mg via tail vein, FIG. 15. On the procedure: MDA-MB-468 tumor cells (1 M cells/mouse) were injected to the flank of SCID mice. Three weeks later, when tumor size reached 5-8 mm in diameter, the experiment was performed. Baseline autofluorescence levels were measured for tumor and normal tissues (skin adjacent to tumor). 1 mg or 0.5 mg of compound 10 was injected via tail vein. After drug injection, fluorescence signals were measured with the optical spectroscopy (˜30 min). Two days after injection, measurement of fluorescence signal was repeated.
Normal: Normal skin adjacent to tumor. All data are normalized to peak fluorescence intensity to compare fluorescence line shapes. […] Measurements were made within a few minutes of injection.

In data set [2] the test system is Hsp90. The data set is described as follows: Recovery of drug-bound protein from tumors of mice by micro anion-exchange chromatography. In kind it is in vivo. As to conditions: 1 mg IV, tumors excised after 2 hours, FIG. 17. How it is done:
Mice were injected (IV) with 1 mg of compound 10 and the tumors were excised from the animal after 2 hours. Tissue extracts were prepared and characterized by micro anion-exchange chromatography. Column fractions were analyzed for the presence of compound 10 by fluorescence and mass spectrometry.

In data set [3] the test system is Hsp90. The data set is described as follows: Recovery of compound 10 bound to purified Hsp90 by microanion exchange chromatography. As to conditions: excess compound 10, dialysis; Western blot and mass spectrometry; FIG. 13A. Type of data set: binding, pig. How it is done:
Hsp90 was purified from pig mammary gland as described in Hughes et al., Bioorg Med Chem. 2012, 20(10):3298-3305. The purified protein (0.3 g) was mixed with an excess of compound 10. The unbound probe was removed by dialysis and the labeled protein subjected to microanion exchange chromatography using a Pharmacia SMART system. Column fractions (100 μL) were collected and analyzed for fluorescence in a plate reader. […] The chromatography experiment was then repeated on cell extracts prepared from MCF7 and BT474 cells treated with compound 10.

Consider `Cc1nn(-c2ccc(C(N)=O)c(NCCCOCCOCCOCCOCCOCCCNC(=S)Nc3ccc4c(c3)C(=O)OC43c4ccc(O)cc4Oc4cc(O)ccc43)c2)c2c1C(=O)CC(C)(C)C2` [Compound 10, 2-((1-((3′,6′-dihydroxy-3-oxo-3H-spiro[isobenzofuran-1,9′-xanthen]-5-yl)amino)-1-thioxo-6,9,12,15,18-pentaoxa-2-azahenicosan-21-yl)amino)-4-(3,6,6-trimethyl-4-oxo-4,5,6,7-tetrahydro-1H-indazol-1-yl)benzamide], for which the accumulation in splenocytes result in data set [1] (FIG. 10A) is recorded as “little accumulation”. Further, the “accumulation in liver cells” value in data set [1] (FIG. 10B) is given as “little accumulation”. In addition, in data set [1] (FIG. 10C), the “accumulation in tumor cells” value was “high degree of accumulation”. For the same compound, the “probe entry and detection of Hsp90” value with MCF10 (benign) cells is “not in MCF10 cells”; in the data set on MCF7 (metastatic) cells (MCF7, non-permeabilized), “enters and detects Hsp90”. Further, the “detection of intracellular Hsp90 following permeabilization” value with MCF7 (metastatic) cells (MCF7 compared with MCF10, Triton X 100) is on record as “detects more intracellular Hsp90 in MCF7s”. The “fluorescence signal in tumor, Day 3” value in the data set on MDA-MB-468 tumor is listed as “still retains FITC signal”. For the same compound, in the data set on MDA-MB-468 tumor (normal skin adjacent to tumor), the “fluorescence signal at normal site, Day 3” value was “declined to pre-injection baseline level”. Besides, in the data set with MDA-MB-468 tumor (within a few minutes of injection), the “fluorescence signal, normal skin versus tumor, Day 0” value is reported as “Normal shows higher signal than tumor”. Also, the “two minor peaks of fluorescence of tumor extract” value in the data set with Hsp90 [2] (fractions 27-35) was “attributable to binding to degraded forms of the N terminal domain of Hsp90”. For the same compound, in the data set with Hsp90 [2] (fractions 49-53), the “major peak of fluorescence of tumor extract” value is reported as “correlates with elution of full length Hsp90”. Besides, the “fluorescence elution profile of labeled purified Hsp90” value with Hsp90 [3] is reported as “single peak was recovered by fluorescence that correlated with elution of Hsp90”.
